Laboratory results reported in US7947852B2, “Naphthalene compounds, a process for their preparation and pharmaceutical compositions containing them” (Les Laboratoires Servier, priority 2007, dated 2011).

Tests used:
MT1 receptor = MT1 receptor (Homo sapiens, UniProt P48039); test: Melatonin MT1 receptor binding study; details: 2-[125I]-iodomelatonin radioligand, competitive binding
Protocol: (§1) The MT1 or MT2 receptor binding experiments are carried out using 2-[^125I]-iodomelatonin as reference radioligand. The radioactivity retained is determined using a liquid scintillation counter.
(§2) Competitive binding experiments are then carried out in triplicate using the various test compounds. A range of different concentrations is tested for each compound. The results enable the binding affinities of the compounds tested (Ki) to be determined.

MT2 receptor = target: T1, MT2 receptor (Homo sapiens, UniProt P49286); test: Melatonin MT2 receptor binding study; details: 2-[125I]-iodomelatonin radioligand, competitive binding
T1 sequence (P49286 1-362): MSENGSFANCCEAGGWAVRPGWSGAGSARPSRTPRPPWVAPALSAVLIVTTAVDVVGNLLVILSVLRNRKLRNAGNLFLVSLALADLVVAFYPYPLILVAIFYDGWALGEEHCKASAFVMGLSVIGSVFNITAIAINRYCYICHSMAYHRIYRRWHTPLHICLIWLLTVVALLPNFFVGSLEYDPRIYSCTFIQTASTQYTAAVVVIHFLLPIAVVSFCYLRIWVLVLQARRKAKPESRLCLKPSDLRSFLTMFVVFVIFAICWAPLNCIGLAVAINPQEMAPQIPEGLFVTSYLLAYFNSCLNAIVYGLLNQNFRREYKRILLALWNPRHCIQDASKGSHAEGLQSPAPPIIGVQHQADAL
Protocol: as §1, §2

Sequence of MT1 receptor (P48039 whole entry): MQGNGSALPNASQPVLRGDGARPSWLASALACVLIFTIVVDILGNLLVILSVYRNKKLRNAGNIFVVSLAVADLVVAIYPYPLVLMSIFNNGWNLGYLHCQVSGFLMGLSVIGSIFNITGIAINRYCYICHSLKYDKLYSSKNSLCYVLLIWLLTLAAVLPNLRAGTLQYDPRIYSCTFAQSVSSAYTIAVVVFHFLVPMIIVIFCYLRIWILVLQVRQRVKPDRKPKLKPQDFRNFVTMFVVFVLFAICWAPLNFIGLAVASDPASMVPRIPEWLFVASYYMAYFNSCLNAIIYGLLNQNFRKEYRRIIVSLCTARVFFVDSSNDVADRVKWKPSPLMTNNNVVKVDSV

For `COc1ccc2cccc(/C(CNC(C)=O)=N\O)c2c1` [Example 2, N-[(2E)-2-(Hydroxyimino)-2-(7-methoxy-1-naphthyl)ethyl]acetamide], the Ki (MT1 receptor) was 7 nM and the Ki (MT2 receptor) was 0.8 nM.
